The text below walks through data of PMC6502086 (Molecular Biology and Evolution, 2019).

The assay concerns the target T1, Or22a (Or22a^1; ab3A-1 neurons) (Drosophila melanogaster, UniProt P81909).
T1 sequence (P81909 1-397): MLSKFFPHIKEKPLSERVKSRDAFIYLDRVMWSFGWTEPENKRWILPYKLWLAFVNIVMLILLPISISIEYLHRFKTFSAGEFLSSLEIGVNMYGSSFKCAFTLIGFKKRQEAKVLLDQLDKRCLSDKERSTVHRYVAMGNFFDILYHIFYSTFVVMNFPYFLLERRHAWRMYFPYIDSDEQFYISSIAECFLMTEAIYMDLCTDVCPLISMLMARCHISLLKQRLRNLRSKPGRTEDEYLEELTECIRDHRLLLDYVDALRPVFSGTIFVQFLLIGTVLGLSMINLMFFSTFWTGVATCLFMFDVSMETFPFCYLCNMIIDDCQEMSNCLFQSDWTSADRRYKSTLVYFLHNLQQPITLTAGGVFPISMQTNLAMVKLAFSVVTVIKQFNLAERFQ
T1 sequence (Q9VNB5 1-486 partner): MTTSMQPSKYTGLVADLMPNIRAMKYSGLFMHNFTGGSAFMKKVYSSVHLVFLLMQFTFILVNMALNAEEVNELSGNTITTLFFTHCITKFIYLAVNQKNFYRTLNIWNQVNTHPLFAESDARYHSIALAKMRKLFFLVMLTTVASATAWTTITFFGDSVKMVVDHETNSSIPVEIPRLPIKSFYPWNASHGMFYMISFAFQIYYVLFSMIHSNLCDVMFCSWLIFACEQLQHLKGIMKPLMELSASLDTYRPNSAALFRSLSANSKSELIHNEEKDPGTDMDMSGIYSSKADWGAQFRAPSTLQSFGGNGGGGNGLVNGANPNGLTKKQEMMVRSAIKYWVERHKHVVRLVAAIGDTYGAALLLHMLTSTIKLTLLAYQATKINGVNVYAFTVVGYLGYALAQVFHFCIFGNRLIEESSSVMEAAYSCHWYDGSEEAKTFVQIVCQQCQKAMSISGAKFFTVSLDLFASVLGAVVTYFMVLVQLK
Put plainly: single-sensillum recording, transgene in empty ab3A neuron.

Each structure is given as a SMILES string.

Turning to `CCOC(=O)C(C)CC` (centres unmarked) [ethyl 2-methyl butanoate], the spikes/s entry (odorant at 10^−2 v/v in paraffin oil) was “flies expressing Or22ab have decreased responses to ethyl hexanoate, methyl hexanoate, and ethyl 2-methyl butanoate”. As for `CCCCCC(=O)OC` [methyl hexanoate], under “odorant at 10^−4 v/v in paraffin oil”, the spikes/s entry is “flies expressing Or22ab have decreased responses to ethyl hexanoate, methyl hexanoate, and ethyl 2-methyl butanoate”.
